According to patent US7589201B2, “Derivatives of 1,4-diazabicyclo[3.2.1]octanecarboxamide, preparation method thereof and use of same in therapeutics” (Sanofi-Aventis, priority 2004, dated 2009):
Structures can show the parent of a compound that is named as a salt.

Key:
[1] = biological target: nicotinic receptors containing the α4β2 subunit (Rattus norvegicus, UniProt P09483+P12390); experiment: [3H]-cytisine binding to rat brain membranes, affinity for α4β2 nicotinic receptors; conditions: inhibition of specific binding of 1 nM [3H]-cytisine, rat whole brain membranes
Experimental: For instance, they were studied with regard to their affinity for nicotinic receptors containing the α4β2 subunit in accordance with the methods described by Anderson and Arneric in Eur. J. Pharmacol. 1994, 253, 261 and by Hall et al. in Brain Res. 1993, 600, 127. Male Sprague Dawley rats weighing 150 to 200 g are decapitated and the whole brain is removed rapidly, homogenized in 15 volumes of 0.32 M sucrose solution at […] and then centrifuged at 1000 G for 10 min. The pellet is discarded and the supernatant is centrifuged at 20,000 G at 4° C. for 20 min. The pellet is recovered and homogenized using a Polytron™ mill in 15 volumes of double-distilled water at 4° C., then centrifuged at 8,000 G for 20 min. […]
On the day of the experiment the tissue is slowly thawed and is suspended in 3 volumes of buffer. […] The reaction is stopped by filtration on Whatman GF/B™ filters pretreated with polyethyleneimine, the filters are rinsed with twice 5 ml of buffer at 4° C. and the radioactivity retained on the filter is measured by liquid scintigraphy. The non-specific binding is determined in the presence of 10 μM (−)-nicotine; the nonspecific binding represents 75% to 85% of the total binding recovered on the filter. […]

[2] = biological target: nicotinic receptors containing the α7 subunit (Rattus norvegicus, UniProt Q05941); experiment: biochemical; assay type: binding
nicotinic receptors containing the α7 subunit, sequence (Q05941 23-502): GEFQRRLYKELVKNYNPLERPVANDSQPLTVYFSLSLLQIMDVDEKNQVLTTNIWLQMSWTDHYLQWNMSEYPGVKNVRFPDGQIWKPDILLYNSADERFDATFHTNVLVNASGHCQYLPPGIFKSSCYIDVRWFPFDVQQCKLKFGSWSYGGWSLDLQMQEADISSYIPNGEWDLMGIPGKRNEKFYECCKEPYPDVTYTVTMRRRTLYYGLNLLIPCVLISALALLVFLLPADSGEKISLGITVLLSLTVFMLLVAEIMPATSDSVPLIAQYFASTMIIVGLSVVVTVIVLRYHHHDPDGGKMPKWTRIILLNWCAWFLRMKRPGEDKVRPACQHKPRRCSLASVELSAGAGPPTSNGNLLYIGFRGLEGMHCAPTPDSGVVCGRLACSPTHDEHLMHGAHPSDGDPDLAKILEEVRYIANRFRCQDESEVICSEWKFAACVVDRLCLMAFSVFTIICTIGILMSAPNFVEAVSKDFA

nicotinic receptors containing the α4β2 subunit, sequence (P09483 31-630): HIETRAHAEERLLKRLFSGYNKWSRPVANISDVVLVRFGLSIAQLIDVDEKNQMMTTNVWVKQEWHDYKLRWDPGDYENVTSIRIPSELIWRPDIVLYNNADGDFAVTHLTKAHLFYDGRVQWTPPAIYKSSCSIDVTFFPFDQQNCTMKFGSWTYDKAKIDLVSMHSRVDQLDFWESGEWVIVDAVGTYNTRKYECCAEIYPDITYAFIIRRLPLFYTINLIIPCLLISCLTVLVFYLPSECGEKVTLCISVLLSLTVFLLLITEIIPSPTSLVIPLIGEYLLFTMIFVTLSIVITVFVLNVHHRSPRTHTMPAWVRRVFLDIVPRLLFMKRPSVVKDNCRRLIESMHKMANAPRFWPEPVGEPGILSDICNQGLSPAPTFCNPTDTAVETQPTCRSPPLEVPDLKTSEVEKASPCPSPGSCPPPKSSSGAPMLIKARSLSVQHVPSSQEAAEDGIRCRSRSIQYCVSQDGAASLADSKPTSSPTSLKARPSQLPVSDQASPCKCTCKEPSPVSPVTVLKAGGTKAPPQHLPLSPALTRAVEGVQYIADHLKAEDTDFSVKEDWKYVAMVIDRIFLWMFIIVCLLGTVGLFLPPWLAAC
nicotinic receptors containing the α4β2 subunit, sequence (P12390 25-500): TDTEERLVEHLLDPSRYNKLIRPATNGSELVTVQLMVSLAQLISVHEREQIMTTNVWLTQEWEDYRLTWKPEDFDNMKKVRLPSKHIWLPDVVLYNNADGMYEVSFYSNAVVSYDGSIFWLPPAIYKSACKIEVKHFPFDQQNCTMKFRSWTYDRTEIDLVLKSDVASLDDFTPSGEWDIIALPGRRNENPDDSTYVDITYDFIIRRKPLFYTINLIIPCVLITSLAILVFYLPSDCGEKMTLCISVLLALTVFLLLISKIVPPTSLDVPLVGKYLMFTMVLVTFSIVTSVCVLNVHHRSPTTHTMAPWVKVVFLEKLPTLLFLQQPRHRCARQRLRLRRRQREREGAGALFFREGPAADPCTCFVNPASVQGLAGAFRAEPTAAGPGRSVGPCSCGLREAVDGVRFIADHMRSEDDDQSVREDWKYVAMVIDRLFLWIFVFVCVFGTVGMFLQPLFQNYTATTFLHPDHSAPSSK

Row | Structure (SMILES) | IC50 [1] | IC50 [2]
1 | Cc1ccc2c(C(=O)N3CCN4CCC3C4)n[nH]c2n1 (racemic) [Compound 1, 3-(1,4-Diazabicyclo[3.2.1]oct-4-ylcarbonyl)-6-methyl-1H-pyrazolo[3,4-b]pyridine hydrobromide 2:1] | > 10000 nM | 56 nM
2 | O=C(c1n[nH]c2ccc(F)cc12)N1CCN2CCC1C2 (racemic) [Compound 4, 3-(1,4-Diazabicyclo[3.2.1]oct-4-ylcarbonyl)-5-fluoro-1H-indazole hydrobromide 2:1] | – | 55 nM
